Experimental data taken from PubChem BioAssay (NCI).
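GI50 marks 50% less growth. TGI is the concentration that stops growth completely.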

Experiments:
Test in all cases: NCI-60 cell line screen, 384-well format
[1] = test system: SN12C renal
[2] = test system: NCI-H226 lung
[3] = test system: PC-3 prostate
[4] = test system: SK-MEL-5 melanoma
[5] = test system: MOLT-4 leukemia
[6] = test system: HT29 colon
[7] = test system: SF-539 CNS
[8] = test system: HL-60(TB) leukemia
[9] = test system: K-562 leukemia
[10] = test system: SW-620 colon
[11] = test system: SF-295 CNS
[12] = test system: NCI-H23 lung
[13] = test system: A498 renal
[14] = test system: IGROV1 ovarian
[15] = test system: NCI-H522 lung
[16] = test system: OVCAR-8 ovarian
[17] = test system: ACHN renal
[18] = test system: SNB-75 CNS
[19] = test system: HOP-92 NSCLC
[20] = test system: KM12 colon
[21] = test system: HCT-15 colon
[22] = test system: UACC-257 melanoma
[23] = test system: UO-31 renal
[24] = test system: MDA-MB-468 breast
[25] = test system: MDA-MB-435 melanoma
[26] = test system: HCT-116 colon
[27] = test system: M14 melanoma
[28] = test system: RXF 393 renal

COc1cc(C(=O)O)ccc1NC(=O)[C@@H]1N[C@@H](CC(C)(C)C)[C@](C#N)(c2ccc(Cl)cc2F)[C@H]1c1cccc(Cl)c1F
TGI [1]: 15.9 µM
GI50 [2]: 0.0202 µM
TGI [2]: 0.128 µM
GI50 [3]: 4.32 µM
TGI [3]: 14.2 µM
GI50 [4]: 1.15 µM
TGI [4]: 2.44 µM
GI50 [5]: < 0.01 µM
TGI [5]: 0.0195 µM
GI50 [6]: 4.23 µM
TGI [6]: 13.1 µM
GI50 [7]: 3.09 µM
TGI [7]: 11.6 µM
GI50 [8]: 2.07 µM
TGI [8]: 3.51 µM
GI50 [9]: 4.19 µM
TGI [9]: 13.9 µM
GI50 [10]: 4.53 µM
TGI [10]: 14.2 µM
GI50 [11]: 3.77 µM
GI50 [12]: 4.77 µM
GI50 [13]: 0.0406 µM
TGI [13]: 4.26 µM
GI50 [14]: 2.63 µM
TGI [14]: 13.8 µM
GI50 [15]: 3.74 µM
TGI [15]: 10.9 µM
GI50 [16]: 4.65 µM
GI50 [17]: 0.03 µM
TGI [17]: 1.49 µM
GI50 [18]: 6.6 µM
TGI [18]: 18.7 µM
GI50 [19]: 1.94 µM
TGI [19]: 4.35 µM
GI50 [20]: 0.0634 µM
TGI [20]: 1.38 µM
GI50 [21]: 3.51 µM
GI50 [22]: 0.228 µM
TGI [22]: 0.657 µM
GI50 [23]: 0.0758 µM
TGI [23]: 0.464 µM
GI50 [24]: 3.79 µM
GI50 [25]: 3.71 µM
TGI [25]: 12.2 µM
GI50 [26]: 0.0526 µM
TGI [26]: 1.85 µM
GI50 [27]: 1.98 µM
TGI [27]: 11.2 µM
GI50 [28]: 2.59 µM
TGI [28]: 5.85 µM
